Reference: patent US20230227466A1, “SUBSTITUTED THIENOPYRIMIDINES THAT INTERACT WITH THE RAS SUPERFAMILY FOR THE TREATMENT OF CANCERS, INFLAMMATORY DISEASES, RASOPATHIES, AND FIBROTIC DISEASE” (SHY Therapeutics, LLC, priority 2020, published 2023)
Where two headings read alike, the source gives them in different places.

Legend:
KRas G12D mutant = target: T1, KRas G12D mutant (Homo sapiens, UniProt P01116, G12D); experiment: Ras GTP binding domain inhibition assay (labeled-GTP competition, cell-free)
T1 construct: made in house
In short: (§1)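 His-tagged GTPases were coated at 10-30 μg/mL onto nickel plates overnight at 4° C, then exposed to compound (20 μM, or serial dilutions for IC50) in buffer with 1% DMSO for 3 h at room temperature, with or without 10-30 μg/mL His-Sos (556-1049) in the final hour. Cy3- or Cy5-GTP (100 nM, 45 min) binding was measured after washing.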

KRas G12C mutant = target: T2, KRas G12C mutant (Homo sapiens, UniProt P01116, G12C); experiment: as above
T2 construct: made in house
In short: as §1

KRas Q61H mutant = target: T3, KRas Q61H mutant (Homo sapiens, UniProt P01116, Q61H); experiment: as above
T3 construct: made in house
In short: as §1

[1] = system: ERK1/2 phosphorylation in Panc-1 cells; experiment: Western ERK1/2 cell-based phosphorylation assay; design: species or system human; conditions: at 10 μM, values in brackets < > are activation %, not inhibition
In short: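 Panc-1 cells starved overnight in 0.5% FBS, then exposed 6 h at 37 °C to compound at 10 μM final (0.3% DMSO) or serial dilutions for IC50. Stimulation with 1.5 ng/ml EGF for 15 min; phospho-ERK1/2 (Thr202/Tyr204) read by western blot on equal protein loads.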

KRas wild type = KRas wild type (Homo sapiens, UniProt P01116); experiment: Ras GTP binding domain inhibition assay (labeled-GTP competition, cell-free); design: made in house
In short: as §1

Rac-1 = Rac-1 (Homo sapiens, UniProt P63000); experiment: as above; design: made in house
In short: as §1

Rho-A = Rho-A (Homo sapiens, UniProt P61586); experiment: as above; design: made in house
In short: as §1

[2] = with SOS, read-out: KRas G12D mutant + SOS: % inh.
[3] = without SOS, read-out: KRas G12D mutant: % inh.
[4] = with SOS, read-out: KRas G12C mutant + SOS: % inh.
[5] = without SOS, read-out: KRas G12C mutant: % inh.
[6] = with SOS, read-out: KRas Q61H mutant + SOS: % inh.
[7] = without SOS, read-out: KRas Q61H mutant: % inh.
[8] = with SOS, read-out: KRas wild type + SOS: % inh.
[9] = without SOS, read-out: KRas wild type: % inh.
[10] = with SOS, read-out: Rac-1 + SOS: % inh.
[11] = without SOS, read-out: Rac-1: % inh.
[12] = with SOS, read-out: Rho-A + SOS: % inh.
[13] = without SOS, read-out: Rho-A: % inh.

Row | Compound | inhibition at 20 µM (KRas G12D mutant; [2]) | inhibition at 20 µM (KRas G12D mutant; [3]) | inhibition at 20 µM (KRas G12C mutant; [4]) | inhibition at 20 µM (KRas G12C mutant; [5]) | inhibition at 20 µM (KRas Q61H mutant; [6]) | inhibition at 20 µM (KRas Q61H mutant; [7]) | % inh of ERK1/2 phosphorylation in PANC-1 [1] | inhibition at 20 µM (KRas wild type; [8]) | inhibition at 20 µM (KRas wild type; [9]) | inhibition at 20 µM (Rac-1; [10]) | inhibition at 20 µM (Rac-1; [11]) | inhibition at 20 µM (Rho-A; [12]) | inhibition at 20 µM (Rho-A; [13]) | IC50 (KRas Q61H mutant; with SOS)
1 | COC1CCCN(c2nc(-c3ccccn3)nc3sc(-c4ccn(C(C)C)n4)c(C)c23)C1 (racemic) [Compound 70, Rac-6-(1-Isopropyl-1H-pyrazol-3-yl)-4-(3-methoxypiperidin-1-yl)-5-methyl-2-(pyridin-2-yl)thieno[2,3-d]pyrimidine] | 26 to 50% | 26 to 50% | 26 to 50% | 51 to 75% | 26 to 50% | 26 to 50% | 0 (0% inhibition) | 26 to 50% | 26 to 50% | 26 to 50% | 26 to 50% | 51 to 75% | 51 to 75% | –
2 | Cc1c(-c2ccn(C(C)C)n2)sc2nc(-c3nccn3C)nc(NC[C@@H]3CCC(=O)N3)c12 [Compound 51] | 51 to 75% | 26 to 50% | 26 to 50% | 51 to 75% | 51 to 75% | 51 to 75% | 0 (0% inhibition) | 51 to 75% | 51 to 75% | – | 51 to 75% | – | 76 to 100% | –
3 | O=C(Nc1ccccn1)c1nc(O)c2scc(-c3ccccn3)c2n1 [Compound 24, 4-Hydroxy-N,7-di(pyridin-2-yl)thieno[3,2-d]pyrimidine-2-carboxamide] | 0% | 1 to 25% | 1 to 25% | 1 to 25% | 0% | 1 to 25% | 0 (0% inhibition) | 1 to 25% | 1 to 25% | 1 to 25% | 0% | 1 to 25% | 1 to 25% | > 10 µM
4 | COCC1CCN(c2nc(-c3ccccn3)nc3sc(-c4ccn(C(C)C)n4)c(C)c23)C1 (racemic) [Compound 71, Rac-6-(1-Isopropyl-1H-pyrazol-3-yl)-4-(3-(methoxymethyl)pyrrolidin-1-yl)-5-methyl-2-(pyridin-2-yl)thieno[2,3-d]pyrimidine] | 1 to 25% | 0% | 26 to 50% | 26 to 50% | 51 to 75% | 26 to 50% | D (76-100% inhibition) | 26 to 50% | 26 to 50% | – | 0% | – | 76 to 100% | –
5 | CO[C@H]1C[C@@H](CNc2nc(-c3nccn3C)nc3sc(-c4ccn(C(C)C)n4)c(C)c23)C1 [Compound 47, 6-(1-Isopropyl-1H-pyrazol-3-yl)-N-(((1s,3s)-3-methoxycyclobutyl)methyl)-5-methyl-2-(1-methyl-1H-imidazol-2-yl)thieno[2,3-d]pyrimidin-4-amine] | 51 to 75% | 51 to 75% | 76 to 100% | 51 to 75% | 76 to 100% | 51 to 75% | D (76-100% inhibition) | 76 to 100% | 76 to 100% | 51 to 75% | 51 to 75% | 76 to 100% | 76 to 100% | –
6 | CO[C@H]1CN(c2nc(-c3nccn3C)nc3sc(-c4ccn(C(C)C)n4)c(C)c23)C[C@H]1OC [Compound 39, rac-4-((3S,4R)-3,4-Dimethoxypyrrolidin-1-yl)-6-(1-isopropyl-1H-pyrazol-3-yl)-5-methyl-2-(1-methyl-1H-imidazol-2-yl)thieno[2,3-d]pyrimidine] | 76 to 100% | 51 to 75% | 51 to 75% | 51 to 75% | 76 to 100% | 51 to 75% | 0 (0% inhibition) | 51 to 75% | 76 to 100% | 51 to 75% | 51 to 75% | 76 to 100% | 76 to 100% | –
7 | COc1cc(Nc2nc(-c3nccn3C)nc3sc(-c4ccn(C(C)C)n4)c(C)c23)ccn1 [Compound 67, 6-(1-Isopropyl-1H-pyrazol-3-yl)-N-(2-methoxypyridin-4-yl)-5-methyl-2-(1-methyl-1H-imidazol-2-yl)thieno[2,3-d]pyrimidin-4-amine] | 51 to 75% | 0% | 51 to 75% | 26 to 50% | 51 to 75% | 51 to 75% | 0 (0% inhibition) | 51 to 75% | 26 to 50% | – | 1 to 25% | – | 26 to 50% | –
8 | COCC1COCCN1c1nc(-c2nccn2C)nc2sc(-c3ccn(C(C)C)n3)c(C)c12 (racemic) [Compound 41, rac-4-(6-(1-Isopropyl-1H-pyrazol-3-yl)-5-methyl-2-(1-methyl-1H-imidazol-2-yl)thieno[2,3-d]pyrimidin-4-yl)-3-(methoxymethyl)morpholine] | 26 to 50% | 0% | 51 to 75% | 51 to 75% | 26 to 50% | 51 to 75% | 0 (0% inhibition) | 51 to 75% | 51 to 75% | 76 to 100% | 76 to 100% | 76 to 100% | 51 to 75% | –
9 | COCCNC(=O)c1nc(N[C@@H]2CC[C@H](OC)C2)c2ccsc2n1 (racemic) [Compound 14, rac-4-(((1R,3S)-3-Methoxycyclopentyl)amino)-N-(2-methoxyethyl)thieno[2,3-d]pyrimidine-2-carboxamide] | 1 to 25% | 1 to 25% | 0% | 0% | 1 to 25% | 0% | 0 (0% inhibition) | 0% | 0% | 0% | 0% | 1 to 25% | 1 to 25% | > 10 µM
10 | CO[C@H]1CC[C@H](Nc2nc(-c3nccn3C)nc3sc(-c4ccn(C(C)C)n4)c(C)c23)CC1 [Compound 54] | 76 to 100% | 51 to 75% | 76 to 100% | 76 to 100% | 76 to 100% | 51 to 75% | D (76-100% inhibition) | 76 to 100% | 76 to 100% | – | 26 to 50% | – | 51 to 75% | –
